Read-outs that look alike come from different tables or passages of the source.
Key:
[1] = in vivo
Description: (§1) An open-label, inpatient, multiple-dose tigecycline, single-dose [^14C]tigecycline metabolic disposition and mass balance study was performed in six healthy male volunteers. The clinical protocol called for twelve subjects. Of these twelve, six received the radioactive dose (subjects 1, 4, 5, 6, 7, and 8 with subject 8 later dropping out of the study.) Eligible subjects were selected based on inclusion/exclusion criteria, medical history, physical examination and additional procedures outlined in the study protocol. Each subject received a 100 mg loading dose on the morning of Day 1, followed by a 50 mg maintenance dose every 12 hours for an additional 5 doses. On the morning of study Day 4, six subjects received a single 50 mg dose of [^14C]tigecycline (50 μCi). Each tigecycline dose was administered via a 30-minute intravenous infusion.
(§2) Serum samples were collected for metabolite profiling prior to tigecycline dosing and 1, 4, 8, 24 and 48 hours following the [^14C]-labeled dose. For metabolite profiling, urine samples were collected at 0-4, 4-8, 8-24 and 24-48 hours and fecal samples were collected up to 48 hours following the [^14C]-labeled dose. Serum and urine samples, and fecal homogenates were shipped on dry ice to the Biotransformation Division of Drug Safety and Metabolism, Wyeth Research, Collegeville, Pa. The details of the sample collection and sample storage are described in the mass balance portion of the study. The 24-48 hour urine and fecal samples for subject #6 were incomplete since the subject withdrew from the study. While samples from this subject were used for metabolite profiling, the samples were not included in the mass balance calculations.
Individual serum samples, collected 1, 4 and 8 hours following the [^14C]-labeled tigecycline dose, were analyzed for metabolite profiles. […] In order to minimize the sample volume, each serum sample was divided into two samples of equal volume (approximately 9 Ml each) and extracted and analyzed separately. […] The residue was reconstituted in 300 μL of acetonitrile/water (1:9), centrifuged for 10 minutes at 14,000 rpm and room temperature using a Model 5415C Eppendorf centrifuge (Brinkmann Instruments, Westbury, N.Y.) and assayed for radioactivity and by HPLC. Selected samples were also analyzed by LC/MS.
HPLC analyses were performed using a Waters 2695 Alliance Separation Module (Waters Corp., Milford, Mass.), a Waters Model 2487 dual wavelength UV absorbance detector, set to monitor 350 nm, and was in-line with a Gilson 215 liquid handler (Gilson, Middleton, Wis.) equipped to collect fractions at 20 second intervals. Fractions were collected into 96-well deep well Luma plates and analyzed using TopCount NXT. […]

[2] = male, human, in vivo
Description: as §1, §2
Individual fecal sample homogenates, prepared from each fecal sample collected up to 48 hours following the [^14C]-labeled tigecycline dose, that contained greater than 8000 dpm/g were analyzed for metabolite profiles. The preparation of the fecal sample homogenates is described in detail in the mass balance portion of the study. Briefly, fecal samples were homogenized with 3 to 4 volumes of ice-cold water by weight at ABC Laboratories (Columbia, Mo.) and shipped frozen to the Biotransformation Division of Drug Safety and Metabolism, Wyeth Research, Collegeville, Pa. For the extraction of radioactivity, fecal homogenates were thawed on ice and aliquots (approximately 1 g) transferred to 15 mL tubes. Three volumes of acetone were added and the samples mixed for 1 minute using a multi-tube vortex mixer. Samples were centrifuged for 15 minutes at 2500 rpm and 4° C. in a Sorvall Super T21 centrifuge. The supernatant was transferred to a fresh tube and the pellet re-suspended with 1 mL of water and 80 μL of 0.5 M EDTA, and re-extracted as described above. The pellet was re-extracted in this manner a total of three times and the supernatants pooled. The supernatant was evaporated to dryness under a stream of nitrogen using a Turbovap Model LV. The residue was re-suspended in 500 μL of water and centrifuged for 10 minutes at 14,000 rpm and room temperature using a Model 5415C Eppendorf centrifuge. The supernatant was transferred to an HPLC vial, assayed for radioactivity and for metabolite profiles using HPLC with radioactivity detection. Selected samples were also analyzed by LC/MS.
HPLC analyses were performed using a Waters 2695 Alliance Separation Module (Waters Corp., Milford, Mass.), a Waters Model 2487 dual wavelength UV absorbance detector, set to monitor 350 nm, and was in-line with a Gilson 215 liquid handler (Gilson, Middleton, Wis.) equipped to collect fractions at 20 second intervals.

Row | SMILES | percent of the fecal radioactivity [2] | Estimated Concentrations in fecal homogenate ([2]; 24.2 h) | Relative Distribution (%) of radioactivity in extracted fecal homogenate ([2]; 24.2 h) [%] | Estimated Concentrations in fecal homogenate ([2]; 24.6 h) | Relative Distribution (%) of radioactivity in extracted fecal homogenate ([2]; 24.6 h) [%] | Estimated Concentrations in fecal homogenate ([2]; 25.2 h) | Relative Distribution (%) of radioactivity in extracted fecal homogenate ([2]; 25.2 h) [%] | Estimated Concentrations in fecal homogenate ([2]; 29.8 h) | Relative Distribution (%) of radioactivity in extracted fecal homogenate ([2]; 29.8 h) [%] | Estimated Concentrations in fecal homogenate ([2]; 30 h) | Relative Distribution (%) of radioactivity in extracted fecal homogenate ([2]; 30 h) [%] | Estimated Concentrations in fecal homogenate ([2]; 32 h) | Relative Distribution (%) of radioactivity in extracted fecal homogenate ([2]; 32 h) [%] | Estimated Concentrations in fecal homogenate ([2]; 34.2 h) | Relative Distribution (%) of radioactivity in extracted fecal homogenate ([2]; 34.2 h) [%] | Estimated Concentrations in fecal homogenate ([2]; 41.8 h) | Relative Distribution (%) of radioactivity in extracted fecal homogenate ([2]; 41.8 h) [%] | percent of the radioactivity in serum ([1]; male, human) | further results
1 | CN(C)c1cc(NC(=O)CNC(C)(C)C)c(O)c2c1C[C@H]1C[C@H]3[C@H](N(C)C)C(O)=C(C(N)=O)C(=O)[C@@]3(O)C(O)=C1C2=O [Tigecycline] | 28-51% | 0.97 mg-Tigecycline Equivalents/Collection | 44.9 | 2.0 mg-Tigecycline Equivalents/Collection | 47.7 | 4.3 mg-Tigecycline Equivalents/Collection | 39.9 | 4.7 mg-Tigecycline Equivalents/Collection | 39.1 | 4.5 mg-Tigecycline Equivalents/Collection | 48.3 | 2.4 mg-Tigecycline Equivalents/Collection | 50.7 | 1.4 mg-Tigecycline Equivalents/Collection | 32.8 | 2.4 mg-Tigecycline Equivalents/Collection | 28.1 |  | percent of serum radioactivity after correcting for the epimer formed during the extraction ([1]; male, human): 59-80%; percent of fecal radioactivity after correcting for the epimer formed during the extraction process [2]: 39-66%
2 | CC(C)(C)NCC(=O)O [Metabolite M3a, t-butylaminoacetic acid] | 4-14% | (0.30) mg-Tigecycline Equivalents/Collection | 13.9 | (0.25) mg-Tigecycline Equivalents/Collection | 6.2 | (0.81) mg-Tigecycline Equivalents/Collection | 7.5 | (0.49) mg-Tigecycline Equivalents/Collection | 4.1 | (0.55) mg-Tigecycline Equivalents/Collection | 5.9 | (0.20) mg-Tigecycline Equivalents/Collection | 4.2 | (0.17) mg-Tigecycline Equivalents/Collection | 3.9 | (0.56) mg-Tigecycline Equivalents/Collection | 6.7 | 10-20% | 
3 | CN(C)c1cc(NC(=O)CNC(C)(C)C)c(O)c2c1C[C@H]1C[C@H]3C(N(C)C)C(O[C@@H]4O[C@H](C(=O)O)[C@@H](O)[C@H](O)[C@H]4O)=C(C(N)=O)C(=O)[C@@]3(O)C(O)=C1C2=O (stereo in doubt) [Metabolite M7, tigecycline glucuronide] | 10-26% | 0.51 mg-Tigecycline Equivalents/Collection | 23.5 | 0.40 mg-Tigecycline Equivalents/Collection | 9.8 | 1.1 mg-Tigecycline Equivalents/Collection | 10.4 | 2.6 mg-Tigecycline Equivalents/Collection | 21.6 | 1.2 mg-Tigecycline Equivalents/Collection | 13.3 | 0.49 mg-Tigecycline Equivalents/Collection | 10.4 | 1.1 mg-Tigecycline Equivalents/Collection | 26.3 | 1.8 mg-Tigecycline Equivalents/Collection | 21.3 |  | 
4 | CN(C)c1cc(NC(=O)CNC(C)(C)C)c(O)c2c1C[C@H]1C[C@H]3[C@@H](N(C)C)C(O[C@@H]4O[C@H](C(=O)O)[C@@H](O)[C@H](O)[C@H]4O)=C(C(N)=O)C(=O)[C@@]3(O)C(O)=C1C2=O [Metabolite M6, epimer of tigecycline glucuronide] | up to 9% | 0.13 mg-Tigecycline Equivalents/Collection | 5.8 |  |  | 0.44 mg-Tigecycline Equivalents/Collection | 4.1 | 0.82 mg-Tigecycline Equivalents/Collection | 6.8 | 0.52 mg-Tigecycline Equivalents/Collection | 5.6 | 0.14 mg-Tigecycline Equivalents/Collection | 3.0 | 0.32 mg-Tigecycline Equivalents/Collection | 7.5 | 0.75 mg-Tigecycline Equivalents/Collection | 8.9 | less than 4% | detection in serum samples [1]: approximately half the serum samples

From patent US7534766B2, “Glucuronide metabolites and epimers thereof of tigecycline” (Wyeth, priority 2004, dated 2009)
